What was measured:
[1] = test system: monocytes from PBMC differentiated into M2 macrophage; assay: M2 macrophage differentiation assay; format: cell-based, human
Text: The purpose of this study was to evaluate the effects of lobeglitazone and other thiazolidinediones on M2 macrophage differentiation. The test articles and vehicles used in this study were lobeglitazone sulfate, pioglitazone HCl, and rosiglitazone.
M2 macrophage differentiation assay timeline was as follows in Table 10.
• (1) Isolate monocytes from PBMC using StemCell® monocyte isolation kit • (2) Count cell and adjust the cell density to 0.5×10^6 cells/ml with fresh complete differentiation medium. Add 5 μL M-CSF stock ([…]) to each 5 ml cell mixture. • (3) Seed isolated monocyte 100 μL per well on 96-well plate. • (4) Add test articles as the plate map using D300e (final concentration in μM). • (5) Differentiate the monocyte to macrophage in the presence of M-CSF to […] for 4 days. • (6) On day 4, add additional medium containing M-CSF. • (7) Add test compounds using D300e (final volume=[…]). • (8) On day 6, add IL-4 at 5× final concentration (IL-4 stock 0.1 mg/ml: dilute 10 μl stock into 10 ml medium for 100 ng/ml. Add 50 μl 100 ng/ml IL-4 to each well containing 200 μL medium to reach 20 ng/ml). • (9) On day 8, spin down the plates at 300×g for 5 min and collect the supernatant for cytokine quantification using MSD. • (10) M2 associated macrophage cytokines of interest are listed below in Table 12.
• (11) Collect cells for flow analysis of viability/CD11c/CD163/CD206.
Flow cytometry and surface marker CD163, CD11c, and CD206 were applied to characterize M2 repolarization. No stain and all stain with surface marker antibody to confirm the optimization of gating strategy.

[2] = test system: TNF-α, IL-10, CCL2, and IL-1β gene expression in colon; assay: QT-PCR gene expression in colon of the DSS-induced IBD model; format: in vivo, mice
Protocol: Animals were euthanized by CO2 at the end of study. Colon length and colon weight (cecum is not included) were recorded, and macroscopic changes were scored based on Table 2. The colon was cleaned using saline, and all feces were removed before weight measurement. The middle part of colon was collected in cassette and fixed in 10% neutral buffered formalin (NBF) for H&E and PAS staining. For left colon, mucosal from colon surface was removed and then snap frozen in liquid nitrogen and store at −80° C. for QT-PCR analysis of TNF-α, IL-10, CCL2, and IL-1β. QT-PCR primers were purchased from Sangon Biotech Co., Ltd.
Treatment of Tissue before RNA Extraction are as follows. • (a) Remove mucosal from colon surface. Cut colon tissue into small pieces on ice. • (b) Weight out the tissue no more than 30 mg and transfer the tissue into a lysing matrix D tube. Totally 700 µL Trizol was added in the tissue and lysing matrix D immediately. • (c) Put the lysing matrix D tubes which contain tissue, Lysing matrix, and 700 μL Trizol into the FastPrep™-24 Sample Preparation System. • (d) Set at speed 6 and grind for 2 min • (e) 140 μL chloroform was added into the tubes, shake the tubes vigorously by vortex for 15 seconds. Incubate at room temperature for 2 min. • (f) 12000 rpm centrifuge for 10 min at 4° C., • (g) Pipet the supernatant to 96 well 2.2 mL deep well plate
RNA Sample Preparation procedure is as follows. • (a) 600 μL Binding Buffer was added into column 1 and 7 • (b) 600 μL DNase Stop Buffer was added into column 2 I 8 • (c) 600 μL Wash Buffer was added into column 3, 4 and 9, 10 • (d) 100 μL Elution Buffer was added into column 5Id 11 • (e) 190 μL DEPC water and 10 μL MagaBio® Reagent was added into column 6 and 12 • (f) Transfer 300 μL of the colorless, upper phase containing the RNA to column 1 and 7 • (g) Put the test plate in nucleic acid purifier • (h) Set the instrument as below in Table 3.
The elution was transferred into a clean nuclease-free centrifuge tube and the RNA sample was store at −80° C.
To use the Takara Prime Script™ Reverse Transcription System, Mix and briefly centrifuge each component before use. Combine the following component volume as in Table 4.
• (a) Store on ice until reverse transcription mix is added. Centrifuge 10 seconds in a micro-centrifuge. Heat in a 42° C. heat block for 2 minutes, 4° C. immediately chill in ice water for at least 5 minutes. • (b) Prepare the reverse transcription reaction mix, 10 μL for each cDNA reaction. Combine on ice, in the order listed. Component volume of step b) (Table 5).
• (c) Combine 20 μL of reverse transcription mix, Centrifuge 10 seconds in a microcentrifuge. • (d) Anneal in a heat block at 37° C. for 15 min, 85° C. for 5 sec, 4° C. save on S100™ Thermal Cycler. • (e) Aliquot the cDNA sample and store at −20° C.
• (a) Make qPCR reaction mixture in one tube based on assay number and replicas. • (b) Prepare primers and master mix mixture according to manufacturer's instructions. And aliquot 9 μL of mixture into each well of the 384 qPCR plate. • (c) Transfer 1 μL of cDNA into each well of a 384 qPCR plate which already contain 9 μL of mixture. Briefly centrifuge the plate. • (d) Seal the plate • (e) Mix thoroughly, spin briefly • (f) Run the PCR Reaction • (g) Place the reaction plate in the instrument. • (h) Set the Applied Biosystems ViiA™ 7 cycling conditions as in Table 6.
Data were expressed as mean±SD. The 2-ΔΔCT method was used to analyze the mRNA expression level. The results were normalized for RNA input using glyceraldehydes-3-phosphate dehydrogenase (GAPDH or other internal controls). Statistical analysis was performed using, one-way ANOVA followed if significant by post-hoc Dunnett test. […] The difference was considered significant when p<0.05

[3] = 0.36 mg/kg PO QD 10 days, vs model
[4] = 1.20 mg/kg PO QD 10 days, vs model
[5] = 3.61 mg/kg PO QD 10 days, vs model

## COc1ccc(Oc2cc(N(C)CCOc3ccc(CC4SC(=O)NC4=O)cc3)ncn2)cc1 (centres unmarked) [lobeglitazone, 5-(4-(2-((6-(4-Methoxyphenoxy)pyrimidin-4-yl)(methyl)amino)ethoxy)benzyl)thiazolidine-2,4-dione]
[1]; CD163, CD11c, CD206, donor 1 and 2
  concentration at which M2 repolarization was promoted (M2 macrophage surface markers, flow cytometry): ~0.025 UM
[1]; cytokine analysis (MSD), donor 1
  Eotaxin-2 expression: remarkable promotion
[1]; cytokine analysis (MSD), donor 3
  MDC expression: remarkable promotion
[2]; [3]
  CCL2 gene expression levels in colon: led to decreases
  IL-1B gene expression levels in colon: significantly decreased
  TNF-α gene expression levels in colon: significantly decreased
[2]; [4]
  CCL2 gene expression levels in colon: led to decreases
  IL-1B gene expression levels in colon: significantly decreased
  TNF-α gene expression levels in colon: significantly decreased
[2]; [5]
  CCL2 gene expression levels in colon: significantly decreased
  IL-1β gene expression levels in colon: did not change
  TNF-α gene expression levels in colon: didn't show obvious changes
[2]; lobeglitazone groups (0.36, 1.20, 3.61 mg/kg PO QD 10 days)
  IL-10 gene expression levels in colon: did not change significantly
[2]; mouse DSS model, 0.36 and 1.20, and 3.61 mg/kg
  GI inflammation, as evidenced by the gene expression data: significantly decreased

— US20250262209A1, “TREATMENT OF GASTROINTESTINAL DISEASES” (Aclipse Two, Inc., priority 2022, published 2025)
